Reference: patent US20110311511A1, “CRYSTAL STRUCTURE OF PfA-M1 AND THE PfA-M1 Co4 COMPLEX” (priority 2008, published 2011)

Legend:
[1] = test system: recombinant P. falciparum M1 aminopeptidase (rPfA-M1); experiment: Enzymatic analysis: aminopeptidase activity with fluorogenic peptide substrates (NHMec release) and inhibition; type: biochemical, Plasmodium falciparum; conditions: for Km / kcat: substrate of rPfA-M1, pH 7.5
Procedure: Aminopeptidase activity was determined by measuring the release of the fluorogenic leaving group, 7-amino-4-methyl-coumarin (NHMec) from the fluorogenic peptide substrates H-Leu-NHMec, H-Ala-NHMec, H-Arg-NHMec, H-Met-NHMec, H-Phe-NHMec, H-Gly-NHMec, H-Val-NHMec, H-Ile-NHMec and H-Pro-NHMec. Reactions were carried out in 96-well microtitre plates (200 μl total volume, 30 min, 37° C.) using a spectrofluorimeter (Bio-Tek KC4) with excitation at 370 nm and emission at 460 nm. […] […] Inhibition experiments were carried out in the presence of substrate.

P. c. chabaudi = conditions: cited from earlier work
PfA-M17 = biological target: T1, PfA-M17 (Plasmodium falciparum, UniProt Q8IL11); conditions: cited from earlier work
T1 sequence (Q8IL11 84-605 limits assumed): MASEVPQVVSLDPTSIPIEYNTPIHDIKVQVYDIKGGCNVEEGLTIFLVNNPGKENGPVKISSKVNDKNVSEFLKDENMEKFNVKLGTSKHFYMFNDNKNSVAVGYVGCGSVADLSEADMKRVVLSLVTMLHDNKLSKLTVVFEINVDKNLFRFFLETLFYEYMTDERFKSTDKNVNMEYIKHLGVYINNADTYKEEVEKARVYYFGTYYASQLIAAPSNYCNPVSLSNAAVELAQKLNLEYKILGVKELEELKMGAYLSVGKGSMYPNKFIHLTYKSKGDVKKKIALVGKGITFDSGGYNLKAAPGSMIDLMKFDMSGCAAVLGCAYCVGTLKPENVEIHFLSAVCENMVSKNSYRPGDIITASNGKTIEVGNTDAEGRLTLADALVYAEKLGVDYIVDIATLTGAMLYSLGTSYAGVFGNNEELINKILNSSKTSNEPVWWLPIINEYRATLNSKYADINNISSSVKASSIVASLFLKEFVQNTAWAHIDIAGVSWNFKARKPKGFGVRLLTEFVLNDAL

Molecule | Km [1] [µM] | kcat [1] [s⁻¹] | Ki ([1]; inhibition of rPfA-M1, in the presence of substrate) [nM] | reduction of murine infection of P. c. chabaudi compared to controls (P. c. chabaudi) [%] | inhibition of PfA-M17 (PfA-M17)
H-Gly-NHmec | 349 | 0.116 |  |  | 
NC(CCc1ccccc1)P(=O)(O)CC(Cc1ccccc1)C(=O)O (stereo not shown) [Co4, hPheP[CH2]Phe] |  |  | 78.3 | 92 | inhibits
Cc1cc(=O)oc2cc(NC(=O)[C@@H](N)C(C)C)ccc12 [H-Val-NHmec] | 1070 | 0.036 |  |  | 
H-Ala-NHmec | 889 | 2.04 |  |  | 
H-Leu-NHmec | 330 | 1.52 |  |  | 
H-Arg-NHmec | 717 | 1.07 |  |  | 
H-Phe-NHmec | 195 | 0.18 |  |  | 
CCC(C)C(N)C(=O)Nc1ccc2c(C)cc(=O)oc2c1 (stereo not shown) [H-Ile-NHmec] | 1710 | 0.040 |  |  | 
Cc1cc(=O)oc2cc(NC(=O)[C@@H]3CCCN3)ccc12 [H-Pro-NHmec] | 734 | 0.0032 |  |  | 
